pIC50: −log10 of the molar value.
Columns and labels:
N294S mutant = settings: cited from earlier work
[1] = target: neuraminidase (NA) of recombinant influenza B/Phuket/3073/2013 WT virus (Influenza B virus, UniProt A0A1S5RAG6); format: biochemical, influenza B/Phuket/3073/2013 virus
Chain of neuraminidase (NA) of recombinant influenza B/Phuket/3073/2013 WT virus (A0A1S5RAG6 entry or part of it, added parts left off): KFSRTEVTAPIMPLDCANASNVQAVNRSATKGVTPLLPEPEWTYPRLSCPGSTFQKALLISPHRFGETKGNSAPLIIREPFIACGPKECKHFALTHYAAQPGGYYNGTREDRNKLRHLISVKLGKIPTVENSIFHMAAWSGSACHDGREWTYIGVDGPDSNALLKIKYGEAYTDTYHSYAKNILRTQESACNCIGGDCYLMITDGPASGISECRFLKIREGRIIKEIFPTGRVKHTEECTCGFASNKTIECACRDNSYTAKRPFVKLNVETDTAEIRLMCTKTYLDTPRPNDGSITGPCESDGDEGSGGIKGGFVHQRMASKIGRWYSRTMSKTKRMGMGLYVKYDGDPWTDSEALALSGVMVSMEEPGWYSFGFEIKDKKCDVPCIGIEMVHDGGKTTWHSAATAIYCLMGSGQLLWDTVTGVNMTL

SMILES | susceptibility phenotype (N294S mutant) | Folds (fold changes according to WT virus) [1] | pIC50 ([1]; mean of two independent experiments in duplicate, read-out: Neuraminidase Inhibitors IC50 values)
CC(=O)N[C@H]1[C@H]([C@H](O)[C@H](O)CO)OC(C(=O)O)=C[C@@H]1N=C(N)N [Zanamivir, zanamivir] | susceptible | – | –
CCC(CC)[C@H](NC(C)=O)[C@@H]1[C@H](O)[C@@H](C(=O)O)C[C@H]1N=C(N)N [Peramivir, peramivir] | – | 1 fold | 9.13

Source: publication PMC6357004 (Viruses, 2018)
